Reference: patent US6100275A, “8-azabicyclo[3.2.1.]oct-2-ene derivatives, their preparation and use” (Neurosearch A/S, priority 1995, dated 2000)

Columns and labels:
[1] = tested on: mice (immobility time, tail suspension); assay: Tail suspension test for antidepressant activity (immobility time); type: in vivo, mouse (female NMRI); settings: Mus musculus, 0.5 h, oral, 30 min before test, 6 min observation, graphical interpolation from at least 3 doses, read-out: ED50 (dose reducing the immobility to 100 sec)
Description: A decrease in the immobility time by mice suspended in their tail is seen after systemic administration of central stimulants and by antidepressants (Steru, L., Chermat, R., Thierry, B. & Simon, P. (1985) The tail suspension test: A new method for screening antidepressants in mice. Psychopharmacology 85:367-370.).
Female NMRI mice (20-25 g) habituated to the room (12 hours light/dark) for at least 16 hours and housed 25 per cage are used. The mice are suspended by the tail with adhesive tape to a rod 30 cm above the lab. bench 30 min after an oral administation of vehicle or drug. For the next 6 min the accumulated duration of immobility defined as no movements by the body or extremities (however head movements are not defined as movements) are noted. Six mice per dose are used.
Saline or vehicle treated mice have immobility time scores between 160-180 sec in average. An ED50 -value is calculated by graphical interpolation from at least 3 doses as the dose reducing the immobility to 100 sec.

[2] = biological target: T1, 3H-noradrenaline (NA) uptake in hippocampal synaptosomes (Rattus norvegicus, UniProt Q63380); assay: In vitro inhibition of 3H-noradrenaline (3H-NA) uptake in hippocampal synaptosomes; type: biochemical, rat (male Wistar)
T1 construct: Hippocampi from male Wistar rats (150-200 g); from tissue; host or cells: hippocampus of male Wistar rats, crude synaptosomal P2 fraction
T1 sequence (Q63380 1-617): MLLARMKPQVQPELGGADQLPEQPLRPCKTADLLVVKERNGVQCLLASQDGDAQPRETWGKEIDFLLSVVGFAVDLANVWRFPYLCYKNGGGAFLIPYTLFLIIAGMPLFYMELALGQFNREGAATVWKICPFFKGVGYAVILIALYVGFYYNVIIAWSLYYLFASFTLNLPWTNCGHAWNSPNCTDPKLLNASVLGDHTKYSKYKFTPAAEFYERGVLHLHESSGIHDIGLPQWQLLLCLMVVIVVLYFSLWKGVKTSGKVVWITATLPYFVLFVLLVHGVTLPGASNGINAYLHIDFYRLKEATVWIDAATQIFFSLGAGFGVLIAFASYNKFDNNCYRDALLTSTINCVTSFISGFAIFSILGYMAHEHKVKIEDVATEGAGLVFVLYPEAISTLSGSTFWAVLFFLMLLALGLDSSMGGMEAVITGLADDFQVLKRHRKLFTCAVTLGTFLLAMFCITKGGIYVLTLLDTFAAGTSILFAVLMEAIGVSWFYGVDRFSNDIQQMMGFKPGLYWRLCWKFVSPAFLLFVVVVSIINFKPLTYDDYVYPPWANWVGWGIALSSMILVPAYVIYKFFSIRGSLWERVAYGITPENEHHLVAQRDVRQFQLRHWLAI
From the text: (§1) Specific neurotransmitter transporters/uptake sites on nerve terminals presumably function to terminate neuronal signaling by removing the neurotransmitters dopamine, noradrenaline and serotonin, respectively, from the synaptic cleft. The activity of the transporter integral proteins can be measured in vitro by synaptosomal uptake of ^3 H-dopamine, ^3 H-noradrenaline and ^3 H-serotonine, respectively.
In vitro Inhibition of ^3 H-noradrenaline (^3 H-NA) Uptake in Hippocampal Synaptosomes
(§2) Tissue preparation: Preparations are performed at 0-4° C. unless otherwise indicated. Hippocampi from male Wistar rats (150-200 g) are homogenized for 5-10 sec in 100 volumes of ice-cold 0.32M sucrose containing 1 mM pargyline using an Ultra-Turrax homogenizer. Monoamine oxidase activity will be inhibited in the presence of pargyline. The homogenate is centrifuged at 1000×g for 10 min. […]
(§3) Assay: Aliquots of 4.0 ml tissue suspension are added to 100 μl of test solution and 100 μl of ^3 H-NA (1 nM, final concentration), mixed and incubated for 90 min at 37° C. Non-specific uptake is determined using desipramine (1 μM, final concentration). […] The amount of radioactivity on the filters is determined by conventional liquid scintillation counting. Specific uptake is calculated as the difference between total uptake and non-specific uptake. […]

[3] = biological target: T2, 3H-5-hydroxytryptamine (5-HT, serotonin) uptake in cortical synaptosomes (Rattus norvegicus, UniProt P31652); assay: In vitro inhibition of 3H-5-hydroxytryptamine (3H-5-HT, serotonin) uptake in cortical synaptosomes; type: biochemical, rat (male Wistar)
T2 construct: Cerebral cortices from male Wistar rats (150-200 g); from tissue; host or cells: cerebral cortex of male Wistar rats, crude synaptosomal P2 fraction
T2 sequence (P31652 whole entry): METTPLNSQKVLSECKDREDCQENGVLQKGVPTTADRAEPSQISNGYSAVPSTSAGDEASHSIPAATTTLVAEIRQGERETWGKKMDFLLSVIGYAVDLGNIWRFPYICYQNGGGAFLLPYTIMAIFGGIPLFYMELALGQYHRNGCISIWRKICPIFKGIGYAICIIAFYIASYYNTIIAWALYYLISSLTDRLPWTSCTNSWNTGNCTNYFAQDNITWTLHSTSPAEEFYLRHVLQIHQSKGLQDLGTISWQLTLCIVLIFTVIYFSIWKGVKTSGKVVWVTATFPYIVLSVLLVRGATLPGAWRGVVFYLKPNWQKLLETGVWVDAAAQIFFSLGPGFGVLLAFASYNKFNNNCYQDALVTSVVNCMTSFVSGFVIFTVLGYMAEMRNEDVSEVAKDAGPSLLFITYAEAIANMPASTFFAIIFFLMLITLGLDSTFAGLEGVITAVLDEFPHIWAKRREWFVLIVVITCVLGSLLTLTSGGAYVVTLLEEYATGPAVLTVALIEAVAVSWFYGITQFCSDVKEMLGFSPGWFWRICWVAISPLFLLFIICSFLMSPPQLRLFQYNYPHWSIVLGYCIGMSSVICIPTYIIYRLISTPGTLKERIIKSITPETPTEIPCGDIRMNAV
From the text: as §1
In vitro Inhibition of ^3 H-5-hydroxytryptamine (^3 H-5-HT, serotonin) Uptake in Cortical Synaptosomes
as §2, with “Cerebral cortices” for “Hippocampi”
as §3, with “H-5-HT” for “H-NA”, “30” for “90”, “citalopram” for “desipramine”

[4] = biological target: T3, 3H-dopamine (DA) uptake in striatal synaptosomes (Rattus norvegicus, UniProt P23977); assay: In vitro inhibition of 3H-dopamine (3H-DA) uptake in striatal synaptosomes; type: biochemical, rat (male Wistar)
T3 construct: Corpi striati from male Wistar rats (150-200 g); from tissue; host or cells: corpus striatum of male Wistar rats, crude synaptosomal P2 fraction
T3 sequence (P23977 whole entry): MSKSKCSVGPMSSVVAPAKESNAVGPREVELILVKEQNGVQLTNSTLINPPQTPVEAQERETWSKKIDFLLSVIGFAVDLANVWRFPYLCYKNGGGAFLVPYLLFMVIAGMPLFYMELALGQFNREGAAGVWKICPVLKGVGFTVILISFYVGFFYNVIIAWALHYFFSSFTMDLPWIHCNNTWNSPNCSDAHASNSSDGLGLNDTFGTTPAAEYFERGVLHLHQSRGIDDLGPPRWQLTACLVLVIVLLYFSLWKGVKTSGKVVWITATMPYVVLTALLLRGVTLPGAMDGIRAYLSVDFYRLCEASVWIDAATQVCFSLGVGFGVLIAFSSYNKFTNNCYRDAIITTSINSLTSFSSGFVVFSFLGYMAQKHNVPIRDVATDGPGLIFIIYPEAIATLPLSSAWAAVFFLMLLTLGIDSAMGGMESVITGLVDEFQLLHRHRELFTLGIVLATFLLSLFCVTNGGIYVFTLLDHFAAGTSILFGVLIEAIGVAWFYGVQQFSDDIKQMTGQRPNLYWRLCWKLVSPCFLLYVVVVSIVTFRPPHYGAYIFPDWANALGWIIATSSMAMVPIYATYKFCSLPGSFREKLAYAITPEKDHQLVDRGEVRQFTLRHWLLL
From the text: as §1
In vitro Inhibition of ^3 H-dopamine (^3 H-DA) Uptake in Striatal Synaptosomes
as §2, with “preparations:” for “preparation:”, “Corpi striati” for “Hippocampi”
as §3, with “H-DA” for “H-NA”, “25” for “90”, “benztropine (10” for “desipramine (1”

`CN1C2C=C(c3ccc(Cl)c(Cl)c3)CC1CC2` (racemic) [(±)-3-(3,4-Dichlorophenyl)-8-methyl-8-azabicyclo[3.2.1]oct-2-ene] showed an ED50 [1] of 0.96 mg/kg, an IC50 [2] of 0.026 µM and an IC50 [3] of 0.0047 µM. For the same compound, the IC50 [4] was 0.079 µM.
